Source: publication PMC4666608, “Metabolic Profiling of Chicken Embryos Exposed to Perfluorooctanoic Acid (PFOA) and Agonists to Peroxisome Proliferator-Activated Receptors” (PLoS ONE, 2015)
Marks after values point to notes of the source that are not given here.

System: chicken embryos
Assay: Metabolic profiling of allantoic fluid (GC-MS, LC-MS, OPLS-DA)
Format: in vivo, Gallus gallus domesticus
Conditions: 150 μg/egg
Method: Controls were injected with 20 μL vehicle only (DMSO).
Plasma was collected and stored at -70°C.
Metabolites in allantoic fluid and blood plasma were analyzed using gas chromatography-mass spectrometry (GC-MS) and liquid chromatography-mass spectrometry (LC-MS) as described in S1 Methods. Prior to GC-MS and LC-MS analysis, allantoic fluid (100 μL) and blood plasma (50 μL) were extracted. To each sample, 900 μL (allantoic fluid) or 450 μL (blood plasma) of extraction buffer (90/10 v/v methanol:water) including all internal standards were added. Standards for GC-MS were proline, succinic acid, glutamic acid, salicylic acid, alpha-ketoglutarate, putrescine, myristic acid, hexadecanoic acid, cholesterol, and sucrose. Standards for LC-MS were Val-Tyr-Val, Leu-enkephalin, sulfadimethoxine and reserpine. Samples were homogenized by shaking in a bead mill at a frequency of 30 Hz for 3 minutes and proteins were precipitated at +4°C on ice. The samples were centrifuged at +4°C, 14000 rpm, for 10 min. Then, 200 μL supernatant was transferred to a GC microvial and 200 μL was transferred to an LC microvial, and solvents were evaporated. Samples from the four replicate experiments were analyzed using in chronological order and within each replicate experiment the run order of the individual samples was randomized.
Multivariate statistical analyses of metabolite profiles were performed using the software package SIMCA-P version 13.0 (Umetrics, Umeå, Sweden). Data was centered and scaled to variance 1 (UV scaling) prior to modelling. To reduce unintended systematic variation caused by sample processing and instrument drift, GC-MS and LC-MS metabolite amounts (expressed as the area under the chromatographic peak) were normalized by Orthogonal Partial Least Squares analysis (O2PLS) prior to multivariate data analysis. O2PLS finds common (predictive) and unique (orthogonal) variation in two data matrices. If applied to find the common variation between the data matrix containing the measured metabolite concentrations and a matrix containing only the internal standards, the only common (predictive) variation expected is due to the unintended systematic variation. By deleting the contribution of the predictive latent variables, that variation can be removed from the data. Models obtained after this normalization contain in general less latent variables, and this simplification helps when deciding on the number of latent variables to be used. Following normalization, GC-MS and LC-MS data were analyzed together. Initially, a global Principal Component Analysis (PCA) was performed to get an overview of groups and trends and to identify outliers. Projections to latent structures by means of Orthogonal Partial Least Squares Discriminant Analysis (OPLS-DA) was used to model the relationship between the X-matrix (metabolite concentrations) and the Y matrix (class, i.e. exposure group or sex), and to find x-variables that were related to class belonging. OPLS-DA is a supervised prediction and regression method that rotates the projection plane to find the maximum covariance between the data and the class assignment. All groups were first analyzed together in a 5-class OPLS-DA and then each exposure group was analyzed against the control group in a 2-class OPLS-DA. Sex differences were analyzed both using the whole data set and in each group separately using 2-class OPLS-DA, with females and males as the two classes. Only variables with 80% or more nonzero values were included in the statistical models. […] The validity of each model was also checked using CV-ANOVA (ANOVA of the cross-validated residuals). A significance level of p < 0.05 was used. For each model, R ^2 X, R ^2 Y and Q ^2 values were calculated, where R ^2 X is a measure of the fraction of x variation modeled in the extracted latent variables, R ^2 Y is a measure of the fraction of y variation modeled and Q ^2 is an estimate of the predictive ability of the model and is calculated by cross-validation. […]

[1] = GC, tentative 2-Oxovaleric acid

CN(CCOc1ccc(CC2SC(=O)NC2=O)cc1)c1ccccn1 (centres unmarked) [Rosiglitazone, rosiglitazone, reference compound]
Mean concentration relative to control, feature Win004_C08 (GC): 1.2**
Mean concentration relative to control, feature Win005_C07 (GC): 1.2*
Mean concentration relative to control, feature Win008_C06 (GC): 1.7***
Mean concentration relative to control, feature Win022_C01 (GC): 2.2***
Mean concentration relative to control, feature Win023_C06 (GC): 1.8*
Mean concentration relative to control, feature win006_C01 (GC): 2.3***
Mean concentration relative to control, feature Win008_C07 (GC, tentative 1-Aminocyclopropanecarboxylic acid): 1.1
Mean concentration relative to control, feature Win023_C03 (GC, tentative 2-Oxoglutaric acid): 2.5***
Mean concentration relative to control, feature Win007_C09 [1]: 1.3***
Mean concentration relative to control, feature Win008_C05 [1]: 1.4***
Mean concentration relative to control, feature Win018_C04 (GC, tentative 3-Amino-2-piperidone): 1
Mean concentration relative to control, feature Win007_C03 (GC, tentative 3-Hydroxybutanoic acid): 1.0
Mean concentration relative to control, feature Win042_C02 (GC, tentative Cystathionine): 1.1
Mean concentration relative to control, feature Win009_C03 (GC, tentative Ketoleucine): 1.3**
Mean concentration relative to control, feature Win008_C04 (GC, tentative Malonic acid): 1.0
Mean concentration relative to control, feature Win005_C03 (GC, tentative Oxalic acid): 0.7**
Mean concentration relative to control, feature Win013_C05 (GC, tentative Succinic acid): 1.1*
Mean concentration relative to control, feature 134.0239@1.1350567 (LC): 1.4*
Mean concentration relative to control, feature 145.0538@3.072527 (LC): 1.2
Mean concentration relative to control, feature 147.0328@3.0722888 (LC): 1.2
Mean concentration relative to control, feature 160.0323@1.1950632 (LC): 1.2***
Mean concentration relative to control, feature 173.0488@3.0734746 (LC): 1.2
Mean concentration relative to control, feature 176.0952@1.3890611 (LC): 0.4*
Mean concentration relative to control, feature 178.0428@1.7582192 (LC): 1.3**
Mean concentration relative to control, feature 180.0048@4.421465 (LC): 0.9***
Mean concentration relative to control, feature 189.1159@1.9209185 (LC): 0.7**
Mean concentration relative to control, feature 197.0639@2.1181405 (LC): 1.2***
Mean concentration relative to control, feature 201.012@3.046474 (LC): 1.1
Mean concentration relative to control, feature 202.0429@2.9548414 (LC): 1.3***
Mean concentration relative to control, feature 205.0533@4.421879 (LC): 0.9***
Mean concentration relative to control, feature 214.016@2.1190732 (LC): 1.2**
Mean concentration relative to control, feature 226.0107@4.421457 (LC): 0.9***
Mean concentration relative to control, feature 236.0816@3.0720985 (LC): 1.2
Mean concentration relative to control, feature 241.0551@2.3510706 (LC): 1.3***
Mean concentration relative to control, feature 243.1118@2.1537287 (LC): 0.7***
Mean concentration relative to control, feature 244.9972@4.421603 (LC): 0.96*
Mean concentration relative to control, feature 245.1563@2.2907295 (LC): 0.7*
Mean concentration relative to control, feature 250.0981@3.072492 (LC): 1.2
Mean concentration relative to control, feature 262.0978@2.7961144 (LC): 1.3*
Mean concentration relative to control, feature 263.0855@2.2847009 (LC): 1.4**
Mean concentration relative to control, feature 270.0441@1.1407775 (LC): 0.7*
Mean concentration relative to control, feature 278.0928@3.0723689 (LC): 1.2
Mean concentration relative to control, feature 279.1248@2.796395 (LC): 1.4*
Mean concentration relative to control, feature 280.1425@2.730277 (LC): 1.1**
Mean concentration relative to control, feature 288.1166@2.9551322 (LC): 1.7**
Mean concentration relative to control, feature 289.1012@3.249983 (LC): 1.2
Mean concentration relative to control, feature 289.173@7.5030584 (LC): 0.7***
Mean concentration relative to control, feature 294.1242@2.3692534 (LC): 0.7***
Mean concentration relative to control, feature 302.0508@3.0722616 (LC): 1.1
Mean concentration relative to control, feature 305.1682@5.353517 (LC): 1.2
Mean concentration relative to control, feature 305.1684@5.2955093 (LC): 1.2
Mean concentration relative to control, feature 308.073@4.4211636 (LC): 0.9***
Mean concentration relative to control, feature 310.1181@1.5090439 (LC): 0.7***
Mean concentration relative to control, feature 316.0389@3.0725708 (LC): 1.2
Mean concentration relative to control, feature 320.0626@3.0729218 (LC): 1.1
Mean concentration relative to control, feature 325.1114@2.1190624 (LC): 1.6***
Mean concentration relative to control, feature 325.1115@2.3554378 (LC): 1.5**
Mean concentration relative to control, feature 333.1335@2.8639288 (LC): 0.7***
Mean concentration relative to control, feature 333.2005@6.5291867 (LC): 1.1
Mean concentration relative to control, feature 335.1866@4.508565 (LC): 0.7***
Mean concentration relative to control, feature 337.1651@1.8737898 (LC): 1.6***
Mean concentration relative to control, feature 344.1424@2.348947 (LC): 1.5**
Mean concentration relative to control, feature 348.0553@3.0730357 (LC): 1.1
Mean concentration relative to control, feature 349.1651@2.4087605 (LC): 1
Mean concentration relative to control, feature 357.1997@6.9691257 (LC): 0.8*
Mean concentration relative to control, feature 371.1513@3.0009465 (LC): 1.4**
Mean concentration relative to control, feature 375.1819@3.672254 (LC): 0.9
Mean concentration relative to control, feature 394.167@3.9552917 (LC): 0.7*
Mean concentration relative to control, feature 414.1482@2.118972 (LC): 1.5***
Mean concentration relative to control, feature 466.0837@2.1187525 (LC): 1.5***
Mean concentration relative to control, feature 488.0753@4.419585 (LC): 0.8***
Mean concentration relative to control, feature 498.1003@2.1184251 (LC): 1.4***
Mean concentration relative to control, feature 507.1682@2.1238236 (LC): 1.3*
Mean concentration relative to control, feature 580.1426@3.0726147 (LC): 1.3
Mean concentration relative to control, feature 582.1578@2.1747615 (LC): 1.8***
Mean concentration relative to control, feature 588.1751@2.1182237 (LC): 1.5***
Mean concentration relative to control, feature 594.1337@3.0724604 (LC): 1.3
Mean concentration relative to control, feature 604.1486@2.1174603 (LC): 1.5***
Mean concentration relative to control, feature 623.183@2.1249466 (LC): 1.8***
Mean concentration relative to control, feature 668.2625@6.4379454 (LC): 1.04**
Mean concentration relative to control, feature 155.0353@0.6447272 (LC, suggested C3H10NO4P): 0.4*
Mean concentration relative to control, feature 345.0497@1.1234403 (LC, suggested C10H12N5O7P): 1.6***
Mean concentration relative to control, feature 337.0259@4.4213357 (LC, suggested C13H11N3O4S2): 0.9***
Mean concentration relative to control, feature 344.1427@2.1164653 (LC, suggested C13H20N4O7): 1.6***
Mean concentration relative to control, feature 331.184@6.373359 (LC, suggested C13H25N5O5): 1
Mean concentration relative to control, feature 361.2026@5.6644735 (LC, suggested C16H31N3O4S): 0.7**
